Earlier results in patent publication US20250295639A1, “METHODS FOR TREATING HEART DISEASES” (Cytokinetics, Incorporated, priority 2024, published 2025).

Tested on: patients with oHCM
Conditions: cited from earlier work

CC(C)n1c(=O)cc(N[C@@H](C)c2ccccc2)[nH]c1=O [mavacamten]
benefit (pVO2, exercise duration, peak METs) in patients receiving beta blockers (EXPLORER-HCM): attenuation of benefit
peak oxygen uptake (pVO2) and other CPET parameters (patients with oHCM): has shown efficacy
